# Test results as given in patent US20150175585A1, “FUSED QUINONIC COMPOUNDS” (CENTRO ATLANTICO DEL MEDICAMENTO S.A (CEAMED, S.A.), priority 2012, published 2015).
# Columns and labels:
# K562 tumors = test: In vivo efficacy, K562 tumor xenografts in NOD-SCID mice; conditions: 10 mg/kg i.p. daily except Saturdays and Sundays, 25 day study; P=0.004 day 4, P=0.007 day 25
# From the text: Mice were sacrificed when their tumor diameters reached 2 cm, or when they became moribund.
# K562 cells = test: K562-based MTT cell viability assay; design: species or system human; conditions: Homo sapiens, 48 h, read-out: Activity (IC50, reduction of cell viability)
# Procedure: Cell viability was assayed by measuring the mitochondrial reduction of the tetrazolium salt 3-(4,5-methyltiazol-2yl)-2,5diphenyl-tetrazolium bromide] (MTT) (Applichen; A2231,0010) (Mosmann T. J Immunol Methods. 1983 16; 65(1-2):55-63; Chuan Y-C et al 2010. Oncogene. 29 (10), 1531-1542. Cells were seeded in 96-well plates in medium supplemented with 10% FBS (Lonza Cat. No: 14-502F), 2 mM L-Glut (Lonza Cat. No: BE17-605E) and 100 U/ml PEST (Lonza Cat. No: DE17-605E) at a cell density of 5000-20000 cells/well. Cells were seeded at a density according to their exponential growth phase. Vehicle (0.05% DMSO) or drug were added to culture medium at the indicated concentrations (10 to 0.01 microM) during 48 h. Then, MTT (0.3 mg/ml) was added to cells following by incubation for 2-4 h at 37° C. in the dark. The medium was then discarded and the formazan precipitate was solubilized by addition of 20% SDS (Sigma; L-5750) in 0.02N HCl (Panreac; 131020.1611) for 12-16 h. The optical density was measured at 595 nm with the iMark Microplate Reader (BioRad, USA). Data was expressed as percent growth above the level in controls and the results in figures were plotted as means±SEM of each test point from 3 replicates.
# Statistical analysis. The concentration of drug that provokes 50% reduction of cell viability (IC50) was determined by using non-linear regression analysis and data were fitted to a log concentration vs normalized response curve in GraphPad software v5 (San Diego, Calif.).
structure (smiles),measurement,setting,value
"N#Cc1ccc(C2C3=C(CCCC3=O)OC3=C2C(=O)c2ccccc2C3=O)cc1 (centres unmarked) [Compound 4, 4-(1,6,11-trioxo-2,3,4,6,11,12-hexahydro-1H-benzo[b]xanthen-12-yl)benzonitrile]",tumor growth (tumor volume) compared to control group,K562 tumors,"pronounced, and statistically significant reduction"
same,IC50,K562 cells,< 1000 nM
